From patent US11220527B2, “Peptides derived from the propeptide NTSR3 and their use in the treatment of depression” (CENTRE NATIONAL DE LA RECHERCHE SCIENTIFIQUE, priority 2016, dated 2022)
Entries after “also recorded” stand apart in the source; their conditions may differ. Where a SMILES comes first, the peptide text is derived from it. The star is where a group is joined. Biotin = O=C1N[C@H]2[C@H](CS[C@H]2CCCCC(=O)*)N1

Assays:
[1] = target: T1, TREK-1 channels expressed on the ßTC3 cells (Mus musculus, UniProt P97438); assay: Whole-cell patch clamp, I=f(V), on ßTC3 cells activated with arachidonic acid; type: cell-based; conditions: previously activated with arachidonic acid, FIG. 7A
T1 construct: TREK-1 channels are present on the surface of beta-pancreatic cells such as beta-TC3 cells; endogenous in cells; host or cells: ßTC3 cells
T1 sequence (P97438 1-426): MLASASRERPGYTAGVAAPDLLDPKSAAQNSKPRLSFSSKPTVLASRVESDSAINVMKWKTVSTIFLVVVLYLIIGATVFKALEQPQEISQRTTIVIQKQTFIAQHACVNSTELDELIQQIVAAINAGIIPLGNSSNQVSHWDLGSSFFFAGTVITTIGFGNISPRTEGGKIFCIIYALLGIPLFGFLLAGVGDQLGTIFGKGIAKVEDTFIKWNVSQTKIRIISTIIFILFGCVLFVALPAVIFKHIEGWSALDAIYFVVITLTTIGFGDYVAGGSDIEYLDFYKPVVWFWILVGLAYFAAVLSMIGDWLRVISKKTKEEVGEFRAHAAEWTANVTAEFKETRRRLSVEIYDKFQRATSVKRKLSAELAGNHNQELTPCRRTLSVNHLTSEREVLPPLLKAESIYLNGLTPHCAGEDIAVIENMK
Experimental: (§1) All experiments measuring the effect of spadin analogs and spadin were performed on ßTC3 or LNCaP or HEK293 cells stably transfected with the TREK-1 channel, hTREK-1/HEK293. The hTREK-1/HEK293 cell line was prepared in the laboratory. These cells also express a reporter gene: E-Green Fluorescent Protein (EGFP) enabling their visualization.
The ßTC3 cells were cultured in RPMI 1640 medium supplemented with 2.5% FCS, 50 μM beta-mercaptoethanol, 10 mM HEPES, 1 mM sodium pyruvate, 50 μg/ml gentamycin and 1% of a streptomycin+penicillin mixture, at 37° C. in the presence of 5% CO2.
The LNCaP cells were cultured in DMEM medium (Gibco)/10% fetal calf serum (FCS, ICN)/1% streptomycin+penicillin mixture (Gibco)/1% glutamax (Gibco)/at 37° C. in the presence of 5% CO2. […] From day 2 to day 4, the cells were measured by electrophysiological methods.
(§2) All measurements were made at room temperature, i.e. at 21-22° C. The hTREK-1/HEK293 cells were identified by the fluorescence emitted by EGFP after excitation at 480 nm. […]
The cell culture medium was replaced with a solution 150 mM NaCl, 5 mM KCl, 3 mM MgCl2, 1 mM CaCl2, 10 mM HEPES/NaOH pH 7.4 containing 10 mM tetraethylammonium chloride, 3 mM 4-aminopyridine. […] The resting potential of the membrane of the measured cell was set at −80 mV. […]

[2] = target: T2, TREK-1 channels expressed on the LNCaP cells (Homo sapiens, UniProt O95069); assay: Whole-cell patch clamp, I=f(V), on LNCaP cells activated with arachidonic acid; type: cell-based; conditions: previously activated with arachidonic acid, FIG. 7B
T2 construct: TREK-1 channels are also present on the surface of cancer cells such as LNCaP cells (prostate cancer); endogenous in cells; host or cells: LNCaP cells
T2 sequence (O95069 1-426): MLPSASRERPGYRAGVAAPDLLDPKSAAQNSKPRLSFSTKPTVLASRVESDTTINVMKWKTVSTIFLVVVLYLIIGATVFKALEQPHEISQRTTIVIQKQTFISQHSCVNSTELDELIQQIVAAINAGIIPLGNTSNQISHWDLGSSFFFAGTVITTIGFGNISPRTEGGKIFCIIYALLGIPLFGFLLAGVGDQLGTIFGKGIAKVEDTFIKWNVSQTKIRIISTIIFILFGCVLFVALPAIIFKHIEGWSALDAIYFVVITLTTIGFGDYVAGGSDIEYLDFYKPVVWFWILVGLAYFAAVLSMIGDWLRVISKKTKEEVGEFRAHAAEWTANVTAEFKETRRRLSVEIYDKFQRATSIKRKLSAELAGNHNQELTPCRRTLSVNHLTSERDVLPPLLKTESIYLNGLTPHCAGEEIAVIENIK
Experimental: as §1
The LNCaP cells were cultured in DMEM medium (Gibco)/10% fetal calf serum (FCS, ICN)/1% streptomycin+penicillin mixture (Gibco)/1% glutamax (Gibco)/at 37° C. in the presence of 5% CO2. At day 1, the hTREK-1/HEK293 or BTC3 or LNCaP cells were seeded at 20,000 cells per 35 mm diameter dish containing 2 ml of culture medium. From day 2 to day 4, the cells were measured by electrophysiological methods.
as §2
The cell culture medium was replaced with a solution 150 mM NaCl, 5 mM KCl, 3 mM MgCl2, 1 mM CaCl2, 10 mM HEPES/NaOH pH 7.4 containing 10 mM tetraethylammonium chloride, 3 mM 4-aminopyridine. […] The resting potential of the membrane of the measured cell was set at −80 mV.
The voltage variations were obtained either by continuous ramp (from −100 to +60 mV) or by a potential jump of 10 mV (from −100 to +60 mV, 1.5 seconds per jump). The data obtained were analyzed with the Pclamp software. […]

LNCaP cells = assay: Growth of LNCaP cells by counting the cells in culture; type: cell-based; conditions: cell count after 24 or 48 h, FIG. 7C
TREK-1 channel = target: T3, TREK-1 channel (Homo sapiens, UniProt O95069); conditions: previously shown; cited from earlier work
T3 sequence (O95069 1-426): T2 sequence (O95069 1-426)

[3] = Learned helplessness test (LHT); type: in vivo; conditions: mice, bolus of 100 μL of a 10^-6 M solution 30 minutes before conditioning, FIG. 4
Experimental: Learned resignation or learned helplessness is a model based on the repeated administration of electric shocks to induce a resigned state in the animal.
The apparatus comprises two compartments separated by a sliding door and with a floor consisting of a metal grid through which the electrical pulses are administered. The learned helplessness protocol is divided into two stages, an animal conditioning stage and a test stage.
The conditioning was carried out over a period of four days during which time the mice received 360 non-avoidable electric shocks of 0.3 mA for one hour (the door, separating the two compartments, being closed). The shocks lasted for 2 seconds and an interval of 8 seconds was respected between each shock. This conditioning step leads to a phenomenon of helplessness in animals.
On the day of the test, the mice were placed in the same compartments but with a possibility of escaping the shock. The test counted 30 trials. During the administration of the shock, the door separating the two compartments opened, allowing the animals to flee. When the animal changes compartment the test is finished and the shock stops. […] This test made it possible to record the escape latencies of the animals. The thirty tests were then grouped by 5 and the average escape time was calculated. […]

[4] = tested on: BrdU-positive cells of the dentate gyrus of the hippocampus; assay: Hippocampal neurogenesis by BrdU immunohistochemistry; type: in vivo; conditions: mice, four days of treatment, FIG. 5
Experimental: BrdU (5-bromo-2′-deoxyuridine) is a synthetic nucleoside analogous to thymidine. It is incorporated during DNA replication during phase S (chromosome duplication during interphase) of the cells in division. Injection of BrdU makes it possible to visualize the cells in division of the tissue to be analyzed by means of immunological labeling. In the present study, the hippocampal neurogenesis of the mice was evaluated after treatment with spadin or the different analogs.
After the behavioral tests, the mice were injected with BrdU at a final concentration of 120 mg/kg intraperitoneally, according to the modified protocol of Beauquis, J. et al. (Eur J Neurosci 23, 1539-1546, 2007). Four injections of 300 μl at 10 mg/ml, spaced two hours apart, were performed. 24 hours after the injections, the mice were anesthetized with pentobarbital (100 mg/kg) and then perfused intracardially. During the intracardiac perfusion, physiological saline was administered to remove all blood from the body of the mice, and then 4% paraformaldehyde (PFA) was perfused to fix the organs. Post-fixation in 4% PFA was also performed overnight. The brains of the mice were cut with a vibratome (Leica), which allowed 40 μm floating frontal sections to be obtained. The sections selected for the immunological reaction were those ranging from bregma 3.3 to 5.3. Eight sections were selected with a regular spacing, allowing the entire hippocampus to be covered while remaining homogeneous from one brain to another.
The immunological reaction was performed by incubating an anti-BrdU primary antibody (BD Pharmingen, 1/8000), with the brain sections, overnight at 4° C. The brain sections were then washed in PBS (Phosphate Buffered Saline) and incubated for two hours with the secondary antibody (biotinylated goat anti-mouse antibody, Vector laboratories, 1/400). […]
The sections were then mounted on slides and fixed with Entellan. BrdU-positive cells of the dentate gyrus of the hippocampus were counted in both hemispheres of each brain. […]

PSD-95 protein = assay: Synaptogenesis: PSD-95 expression in cortical neurons by Western blot; type: cell-based, mouse C57BI/6J; conditions: 1 μM, 0-36 hours, normalized to ß-actin, FIG. 6
Experimental: Pregnant female C57BI/6J mice (20-25 g, Janvier Labs, St Berthevin, France) were anesthetized by inhalation of 2% isoflurane mixed with 30% oxygen and 70% nitrous oxide, and then sacrificed. The embryos (E14) were removed and the cerebral cortex was dissected in PBS containing 1% glucose. Neurons were prepared from cerebral cortex by mechanical dissociation, as described in Brewer and Torricelli, 2007 [26]. The dissociated neurons were distributed in poly-L-lysine treated plates and cultured for up to 10 days in neurobasal medium containing 2% B27 (Invitrogen, Fisher Scientific, Illkirch, France) and 50 μg/ml gentamycin (Sigma France), at 37° C. under 5% CO2. […]
Cortical neurons treated with peptides G/A-PE(22-28) and biotinylated G/A-PE(22-28) for different durations (0, 5, 8, 24 and 36 hours) were homogenized in Laemmli buffer and analyzed using 10% SDS-Page gels. […] The ß-actin contents were determined after extraction using a 1/5000 dilution of anti-β-actin antibodies (Santa Cruz mouse monoclonal antibody, dilution 1/5000). […] The proteins were detected with ECL Plus detection reagents (Amersham Biosciences) using the LAS-3000 imaging system (Fujifilm, Düsseldorf, Germany). The relative intensities of each labeled band were analyzed by densitometric scanning using ImageJ software (Wayne Rasband, National Institute of Health, Bethesda, Md., USA). […]

For “GVSWGLR (Peptide PE(22-28)) [base peptide derived from the propeptide, used for design of other peptides]”, the “blocking of arachidonic acid (aa) activated TREK-1 / potassium currents on ßTC3 cells” value [1] was “blocks arachidonic acid (aa) sensitive potassium currents”, the “blocking of arachidonic acid (aa) activated TREK-1 / potassium currents on LNCaP cells” value [2] was “blocks arachidonic acid (aa) sensitive potassium currents; also recorded: capable of blocking the TREK-1 channels” and the “growth of LNCaP cells” value (LNCaP cells) was “inhibits their growth; also recorded: capable of inhibiting the cell growth”.

For “QDRLDAPPPPAAPLPRWSGPIGVSWGLRAAAAGGAFPRGGRWRR (Propeptide PE)”, the “blocking of TREK-1 channel activity” value (TREK-1 channel) is given as “able to block the activity of the TREK-1 channel”.

In the case of `CC(C)C[C@H](NC(=O)CNC(=O)[C@H](Cc1c[nH]c2ccccc12)NC(=O)[C@H](CO)NC(=O)[C@@H](NC(=O)[C@H](C)NC(=O)CCCC[C@@H]1SC[C@@H]2NC(=O)N[C@@H]21)C(C)C)C(=O)N[C@@H](CCCNC(=N)N)C(=O)O` [biotinylated G/A-PE(22-28)] (Biotin-AVSWGLR-OH; N-terminus and C-terminus assumed), the “escape latencies in the learned helplessness test” value [3] is reported as “capable of reducing the escape latencies”, the “neurogenesis (BrdU-positive cells of the hippocampus)” value [4] is reported as “increase neurogenesis more strongly than peptide PE(22-28); also recorded: capable of inducing an increase in neurogenesis” and the “PSD-95 synaptic protein expression (synaptogenesis)” value (PSD-95 protein) is reported as “increased PSD-95 synaptic protein expression”.
